In patent US8637537B2, “Serine/threonine kinase inhibitors” (Genentech, Inc., priority 2011, dated 2014):

molecular target: T1, human recombinant GST-PAK1-KD protein (Homo sapiens, UniProt Q13153); assay: GST-PAK1-KD (kinase domain) biochemical assay, microfluidic mobility shift; settings: Table II, PAK1 Ki class; read-out: Ki
T1 construct: residues #249-545 of human PAK1, UniProtKP/Swiss Q13153; His6 (N); made in house; host or cells: Sf9 insect cells, pAcGP67 baculovirus expression vector
T1 sequence (Q13153 249-545): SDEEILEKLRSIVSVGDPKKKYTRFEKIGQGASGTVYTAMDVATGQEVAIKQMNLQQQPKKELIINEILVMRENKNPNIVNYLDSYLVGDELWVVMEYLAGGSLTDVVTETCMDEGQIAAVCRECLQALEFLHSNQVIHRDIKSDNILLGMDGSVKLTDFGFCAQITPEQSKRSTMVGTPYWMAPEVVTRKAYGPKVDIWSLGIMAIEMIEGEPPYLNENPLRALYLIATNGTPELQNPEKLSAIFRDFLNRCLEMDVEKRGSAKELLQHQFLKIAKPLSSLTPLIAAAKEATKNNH

Ki, < 50 nM:
CN(C)CCCN(Cc1cc(F)cc2[nH]ncc12)c1nccc(Nc2cc(C3CC3)[nH]n2)n1 [II-48, N^4-(5-cyclopropyl-1H-pyrazol-3-yl)-N^2-(3-(dimethylamino)propyl)-N^2-((6-fluoro-1H-indazol-4-yl)methyl)pyrimidine-2,4-diamine]
CN(Cc1ccc2[nH]cnc2c1Cl)c1nccc(Nc2cc([C@@H]3C[C@H]3F)[nH]n2)n1 [II-49, N^2-((4-chloro-1H-benzo[d]imidazol-5-yl)methyl)-N^4-(5-((1S,2R)-2-fluorocyclopropyl)-1H-pyrazol-3-yl)-N^2-methylpyrimidine-2,4-diamine]
Clc1cc(CNc2nccc(Nc3cc(C4CC4)[nH]n3)n2)c2cn[nH]c2c1 [II-50, N^2-((6-chloro-1H-indazol-4-yl)methyl)-N^4-(5-cyclopropyl-1H-pyrazol-3-yl)pyrimidine-2,4-diamine]
Fc1cc(CNc2nccc(Nc3cc(C4CC4)[nH]n3)n2)c2cn[nH]c2c1 [II-52, N^4-(5-cyclopropyl-1H-pyrazol-3-yl)-N^2-((6-fluoro-1H-indazol-4-yl)methyl)pyrimidine-2,4-diamine]
C[C@H](Nc1nccc(Nc2cc(C3CC3)[nH]n2)n1)c1cc(F)cc2[nH]ncc12 [II-53, (S)-N^4-(5-cyclopropyl-1H-pyrazol-3-yl)-N^2-(1-(6-fluoro-1H-indazol-4-yl)ethyl)pyrimidine-2,4-diamine]
CN(Cc1ccc2[nH]cnc2c1Cl)c1nccc(Nc2cc([C@H]3CC3(F)F)[nH]n2)n1 [II-54, (R)-N^2-((4-chloro-1H-benzo[d]imidazol-5-yl)methyl)-N^4-(5-(2,2-difluorocyclopropyl)-1H-pyrazol-3-yl)-N^2-methylpyrimidine-2,4-diamine]
CN(Cc1ccc2[nH]cnc2c1Cl)c1nccc(Nc2cc(C3(F)CC3)[nH]n2)n1 [II-55, N^2-((4-chloro-1H-benzo[d]imidazol-5-yl)methyl)-N^4-(5-(1-fluorocyclorpropyl)-1H-pyrazol-3-yl)-N^2-methylpyrimidine-2,4-diamine]
Fc1cnc(NCc2cc(Cl)cc3[nH]ncc23)nc1Nc1cc(C2CC2)[nH]n1 [II-57, N^2-((6-chloro-1H-indazol-4-yl)methyl)-N^4-(5-cyclopropyl-1H-pyrazol-3-yl)-5-fluoropyrimidine-2,4-diamine]
CN(Cc1cc(F)cc2[nH]ncc12)c1nccc(Nc2cc(C3CC3)[nH]n2)n1 [II-58, N^4-(5-cyclopropyl-1H-pyrazol-3-yl)-N^2-((6-fluoro-1H-indazol-4-yl)methyl)-N^2-methylpyrimidine-2,4-diamine]
Fc1cc(CNc2nccc(Nc3cc([C@H]4C[C@@H]4F)[nH]n3)n2)c2cn[nH]c2c1 [II-60, N^2-((6-fluoro-1H-indazol-4-yl)methyl)-N^4-(5-((1R,2S)-2-fluorocyclopropyl)-1H-pyrazol-3-yl)pyrimidine-2,4-diamine]
C[C@H](Nc1nccc(Nc2cc(C3CC3)[nH]n2)n1)c1c(F)ccc2[nH]ncc12 [II-61, (S)-N^4-(5-cyclopropyl-1H-pyrazol-3-yl)-N^2-(1-(5-fluoro-1H-indazol-4-yl)ethyl)pyrimidine-2,4-diamine]
C[C@H](CN(Cc1cc(F)cc2[nH]ncc12)c1nccc(Nc2cc(C3CC3)[nH]n2)n1)N(C)C [II-62, (R)-N^4-(5-cyclopropyl-1H-pyrazol-3-yl)-N^2-(2-(dimethylamino)propyl)-N^2-((6-fluoro-1H-indazol-4-yl)methyl)pyrimidine-2,4-diamine]
CC(C)N(Cc1cc(F)cc2[nH]ncc12)c1nccc(Nc2cc(C3CC3)[nH]n2)n1 [II-63, N^4-(5-cyclopropyl-1H-pyrazol-3-yl)-N^2-((6-fluoro-1H-indazol-4-yl)methyl)-N^2-isopropylpyrimidine-2,4-diamine]
Fc1cc(CNc2nccc(Nc3cc([C@@H]4C[C@H]4F)[nH]n3)n2)c2cn[nH]c2c1 [II-64, N^2-((6-fluoro-1H-indazol-4-yl)methyl)-N^4-(5-((1S,2R)-2-fluorocyclopropyl)-1H-pyrazol-3-yl)pyrimidine-2,4-diamine]
